According to PMC3435281 (PLoS ONE, 2012):
pEC50: −log10 of the molar value.

What was measured:
C57BL/6J splenocytes = experiment: CYP1A1, CYP1B1 and IDO mRNA in C57BL/6J splenocytes; type: cell-based, mouse; conditions: 4 hours
Text: An important role for the AHR in the immune system, and specifically T-cell differentiation, has been recognized and continues to be characterized in the literature, [7]. Some ligands of the AHR have the ability to enhance Treg differentiation from naïve T-cells (TCDD, kynurenine), while others direct differentiation towards Th17 effector cells (FICZ). […] IDO has long been known to play a role in Treg generation, and may be central to the mechanism of Dendritic Cell (DC)-directed Treg generation. […] As described in the Methods, naïve T-cells were sorted using magnetic bead separation, and placed in culture for 5 days with allogeneic pDCs separated from BALB/C mice. […] After 5 days, cells were collected and mRNA harvested for qPCR analysis of IDO and FoxP3. […] Naïve T cells were placed in culture with IL-6 and TGF-β, and harvested after 3 days of culture.
A. Spleens were harvested from mice and processed in the standard fashion. […] Same assay as A, but mRNA for CYP1B1 and IDO were measured. C.

DBA/2J mice (AHR^d) = experiment: In vivo hepatic microsomal EROD activity, DBA/2J; set-up: species or system mouse; conditions: oral 30, 80 or 120 mg/kg, 48 hours
Method: We utilized the wild type rat hepatoma cell line, 5L, which harbors the high affinity AHR isoform, and our newly created AHR^d-15 cell line. […] Groups of control mice were given corn oil alone or BNF at the concentration of 120 mg/kg.
Figure 3 In Vitro dose response curves. A. Rat hepatoma cell lines bearing the murine AHR^d (AHR^d-15) or the rat AHR^b (5L) were incubated with increasing doses of TCDD in 96-well plates. After 40 hours, EROD activity was performed from whole cell lysate. (n = 3). […] (n = 3). C. Same assay as in A, with increasing doses of BNF. (n = 2). […] Following 48 hours, hepatic microsomal proteins were isolated and used for the assessment of EROD activity. Animals were treated in groups of 4. Error bars: S.D.
Hepatic microsomes were prepared by homogenizing 0.5 g of liver tissue in 5 mL of MENG buffer (25 mM buffer sodium morpholinopropane sulfonate buffer (pH 7.5) containing 0.025% (w/v) NaN3, 1 mM EGTA and 10% (v/v) glycerol). The homogenate was subjected to centrifugation at 10,000×g for 20 minutes, followed by centrifugation of the supernatant for 1 hour at 100,000×g and 4°C. The pellet was dissolved in 15 mM Tris-HCl buffer containing 250 mM sucrose (pH 8.0) and aliquots were stored at −80°C. Protein concentration was determined using the Bicinchoninic Acid Protein Assay Reagent (Pierce Biotechnology, Rockford, IL). […]

[1] = known value; cited from earlier work
AHR A375V (AHR^d type) = AHR A375V (AHR^d type) (Mus musculus, UniProt P30561, A375V); experiment: DRE-luciferase in COS-1 cells transfected with mAHR-A375V
Method: Figure 4 Splenocytes from wild-type and AHR^d mice analyzed by qPCR for CYP1A1. […] After 4 hours they were analyzed by qPCR for CYP1A1 analysis. The curves are normalized from 0 to 100% response. […] Cos-1 cells were transfected with an AHR containing the same point mutation (valine for alanine) thought to be responsible for the low affinity of the AHR^d isoform compared to AHR^b, and compared to the wild-type AHR response. These cells also harbor a luciferase gene next to the DRE. C. Cos-1 cells were exposed to TCDD. […] The graphs represent normalized data from 0 response to 100% response. They are representative of 2 independent experiments.
These cells also harbor a luciferase gene next to the DRE. […] The data in this figure is normalized from 0 to 100% response.
After 4 hours of treatment, cells were assayed with dual luciferase® reporter assay system (Promega, Madison, WI). The expressed luciferase activity was measured by MicroLumat Plus luminometer (Berthold Technologies, Hartfordshire, UK).

[2] = tested on: CYP1A1 (induction through AHR^b); experiment: CYP1A1 qPCR in wild-type splenocytes; conditions: C57BL/6J, mouse
Method: As the above in vitro experiments were performed in cell lines, we next utilized AHR^b (C57BL/6J) and AHR^d congenic mice (on a C57BL/6J background). […] Normalized data was chosen to allow comparison of CYP1A1 upregulation to its maximum in AHR^b versus AHR^d mice.
Figure 4 Splenocytes from wild-type and AHR^d mice analyzed by qPCR for CYP1A1. […] After 4 hours they were analyzed by qPCR for CYP1A1 analysis. The curves are normalized from 0 to 100% response. […] Cos-1 cells were transfected with an AHR containing the same point mutation (valine for alanine) thought to be responsible for the low affinity of the AHR^d isoform compared to AHR^b, and compared to the wild-type AHR response. These cells also harbor a luciferase gene next to the DRE. C. Cos-1 cells were exposed to TCDD. […]
Spleen was harvested from mice at the time of euthanasia and single cell suspensions were made. […] The relative quantitation PCR for IDO1 (Mm00492586-m1) and GAPDH (4352339-E0806018) were performed in the Applied Biosystems 7900HT Fast Real-Time PCR System (Applied Biosystems), and TaqMan Universal PCR Master Mix (Applied Biosystems) was used as a reaction reagent. The relative quantitation PCR for Foxp3, CYP1A1, CYP1B1, and GAPDH were processed by the Bio-Rad iCycler (Bio-Rad) and iQ SYBR Green Supermix ([…]) was used as the reaction reagent.

Structure (SMILES) | induction of CYP1A1 and CYP1B1 mRNA (C57BL/6J splenocytes; titrating doses) | induction of IDO mRNA (C57BL/6J splenocytes; titrating doses) | CYP1A1 mRNA induction (C57BL/6J splenocytes; wild-type cells, SU5416 500 nM) | hepatic EROD activity (DBA/2J mice (AHR^d)) | plasma half-life [1] | pEC50 (AHR A375V (AHR^d type)) | EC50 at 4 h [2]
Cc1cc(C)c(C=C2C(=O)Nc3ccccc32)[nH]1 [SU5416, 3-(3,5-dimethyl-1H-pyrrol-2-ylmethylene)-1,3-dihydro-indole-2-one] | dramatically induced | induced significant amounts of IDO mRNA | induced CYP1A1 in wild-type | dose-dependent increase | 30 min |  | 
Clc1cc2c(cc1Cl)Oc1cc(Cl)c(Cl)cc1O2 [TCDD, 2,3,7,8-tetrachlorodibenzo-p-dioxin] |  |  |  |  |  | 8.61 | 0.461 nM
